In US20130184222A1, “[…] ACTIVE COMPOSITIONS AND THEIR METHODS OF USE” (AGIOS PHARMACEUTICALS, INC, priority 2010, published 2013):

Columns and labels:
IDH1 R132H = IDH1 R132H (Homo sapiens, UniProt O75874, R132H); assay: In vitro assay for IDH1 R132H inhibitors (NADPH/aKG, resazurin detection); assay type: biochemical; conditions: Table 4B; 0.2 μg/ml IDH1 R132H, 50 minutes at room temperature; read-out: IC50, IDH1 R132H Inhibition
In short: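 Reaction ran 50 min at room temperature in Tris pH 7.5 buffer with 150 mM NaCl, 10 mM MgCl2 and 0.03% BSA. Mix concentrations were 0.2 μg/ml mutant enzyme, 8 uM NADPH and 2 mM aKG. Detection added 30 μM resazurin, with resorufin fluorescence (Ex544/Em590) measured 5 min later.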

HT1080 cells = assay: Cellular assay: inhibition of 2-HG production in HT1080 cells (LC-MS, 48 hours); assay type: cell-based; conditions: Homo sapiens, HT-1080, 2-HG in media by LC-MS
In short: (§1)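 HT1080 or U87MG cells (5000/well, DMEM + 10% FBS) seeded overnight, then exposed to compound (0.2% DMSO final) for 48 h; medium 2-HG measured by LC-MS. Viability read by CellTiter-Glo luminescence at 72 h.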

U87MG cells = assay: Cellular assay: inhibition of 2-HG production in U87MG cells (LC-MS, 48 hours); assay type: cell-based; conditions: Homo sapiens, U-87 MG, 2-HG in media by LC-MS
In short: as §1

Chain of IDH1 R132H (O75874 whole entry R132H): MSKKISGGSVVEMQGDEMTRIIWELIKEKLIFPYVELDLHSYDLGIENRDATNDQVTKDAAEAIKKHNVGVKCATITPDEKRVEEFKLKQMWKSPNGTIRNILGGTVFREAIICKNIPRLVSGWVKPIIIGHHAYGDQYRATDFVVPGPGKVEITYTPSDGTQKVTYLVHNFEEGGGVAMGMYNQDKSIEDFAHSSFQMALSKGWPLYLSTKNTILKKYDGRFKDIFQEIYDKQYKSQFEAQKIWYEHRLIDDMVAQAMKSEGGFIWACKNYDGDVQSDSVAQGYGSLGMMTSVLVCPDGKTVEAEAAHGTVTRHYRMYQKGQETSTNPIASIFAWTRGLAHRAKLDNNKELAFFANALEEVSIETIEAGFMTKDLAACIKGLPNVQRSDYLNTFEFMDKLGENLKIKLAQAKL

SMILES | IC50 (IDH1 R132H) [nM] | IC50 (HT1080 cells) [nM] | IC50 (U87MG cells) [nM]
Cc1ccccc1C(C(=O)NC1CCCCC1)N(C(=O)C(=O)c1nccn1C)c1cccc(F)c1 (stereo not drawn) [Compound 284] | 100 to 1000 | 250 to 1000 | 1000 to 5000
Cc1ccccc1C(C(=O)NC1CCCCC1)N(C(=O)Cn1ccnc1C)c1cccc(-c2ccccc2)c1 (stereo not drawn) [Compound 286] | 100 to 1000 | 250 to 1000 | ≤ 250
Cc1ccccc1C(C(=O)NC1CCCCC1)N(C(=O)CNc1cc(F)ccn1)c1cccc(F)c1 (stereo not drawn) [Compound 287] | ≤ 100 | ≤ 250 | ≤ 250
Cc1ccccc1C(C(=O)NC1CCCCC1)N(C(=O)Cc1cccnc1)c1cccc(F)c1 (stereo not drawn) [Compound 288] | ≤ 100 | 250 to 1000 | 1000 to 5000
Cc1ccccc1C(C(=O)NC1CCCCC1)N(C(=O)Cc1n[nH]c2ccccc12)c1cccc(F)c1 (stereo not drawn) [Compound 289] | ≤ 100 | ≤ 250 | ≤ 250
Cc1ccccc1C(C(=O)NC1CCCCC1)N(C(=O)CNc1ccc(-c2nnco2)cc1)c1cccc(F)c1 (stereo not drawn) [Compound 290] | ≤ 100 | ≤ 250 | 250 to 1000
Cc1ccccc1C(C(=O)NC1CCCCC1)N(C(=O)CNc1ccc(-c2ncon2)cc1)c1cccc(F)c1 (stereo not drawn) [Compound 291] | ≤ 100 | ≤ 250 | 250 to 1000
Cc1ccccc1C(C(=O)NC1CCCCC1)N(C(=O)Cn1ccnc1C)c1cccc(-c2cccc(OC(F)(F)F)c2)c1 (stereo not drawn) [Compound 292] | 100 to 1000 | 1000 to 5000 | 1000 to 5000
COC(=O)N1CCCCC1C(=O)N(c1cccc(F)c1)C(C(=O)NC1CCCCC1)c1ccccc1C (stereo not drawn) [Compound 293] | ≤ 100 | 250 to 1000 | ≤ 250
Cc1ccccc1C(C(=O)NC1CCCCC1)N(C(=O)Cn1cncn1)c1cccc(F)c1 (stereo not drawn) [Compound 294] | 100 to 1000 | 1000 to 5000 | 250 to 1000
Cc1nccn1CC(=O)N(c1cccc(F)c1)C(C(=O)NC1CCCCC1)c1ccccc1 (stereo not drawn) [Compound 295] | 100 to 1000 | 1000 to 5000 | ≤ 250
O=C(NC1CCCCC1)C(c1ccccc1)N(C(=O)Cn1ccnc1)c1cccc(F)c1 (stereo not drawn) [Compound 296] | 100 to 1000 | 1000 to 5000 | ≤ 250
Cc1ccccc1C(C(=O)NC1CCCCC1)N(C(=O)Cc1ccc2[nH]ccc2c1)c1cccc(F)c1 (stereo not drawn) [Compound 297] | ≤ 100 | 250 to 1000 | ≤ 250
Cc1ccn(CC(=O)N(c2cccc(F)c2)C(C(=O)NC2CCCCC2)c2ccccc2C)n1 (stereo not drawn) [Compound 298] | 100 to 1000 | 250 to 1000 | 1000 to 5000
COc1cccc(-c2cccc(N(C(=O)Cn3ccnc3C)C(C(=O)NC3CCCCC3)c3ccccc3C)c2)c1 (stereo not drawn) [Compound 299] | 100 to 1000 | 1000 to 5000 | 250 to 1000
Cc1ccccc1C(C(=O)NC1CCCCC1)N(C(=O)CNc1ncccc1F)c1cccc(F)c1 (stereo not drawn) [Compound 301] | ≤ 100 | ≤ 250 | ≤ 250
Cc1ccccc1C(C(=O)NC1CCCCC1)N(C(=O)CNc1cccc(F)n1)c1cccc(F)c1 (stereo not drawn) [Compound 302] | 100 to 1000 | ≤ 250 | 250 to 1000
Cc1ccccc1C(C(=O)NC1CCCCC1)N(C(=O)COc1cc(C(F)(F)F)ccn1)c1cccc(F)c1 (stereo not drawn) [Compound 303] | 100 to 1000 | ≤ 250 | 250 to 1000
Cc1ccccc1C(C(=O)NC1CCCCC1)N(Cc1nccs1)C(=O)Cn1ccnc1 (stereo not drawn) [Compound 304] | 100 to 1000 | > 5000 | 250 to 1000
Cc1ccccc1C(C(=O)NC1CCCCC1)N(C(=O)Cc1ccccn1)c1cccc(F)c1 (stereo not drawn) [Compound 305] | 100 to 1000 | 250 to 1000 | 250 to 1000
COC(=O)N1CCCC1C(=O)N(c1cccc(F)c1)C(C(=O)NC1CCCCC1)c1ccccc1C (stereo not drawn) [Compound 306] | ≤ 100 | 250 to 1000 | ≤ 250

SMILES | IC50 (IDH1 R132H) [nM] | IC50 (HT1080 cells) [nM] | IC50 (U87MG cells) [nM]
O=C(NC1CCCCC1)C(c1ccccc1Cl)N(C(=O)Cc1cscn1)c1cccc(F)c1 (stereo not drawn) [Compound 307] | ≤ 100 | 250 to 1000 | 250 to 1000
Cc1ccccc1C(C(=O)NC1CCCCC1)N(C(=O)CNc1ncc[nH]1)c1cccc(F)c1 (stereo not drawn) [Compound 308] | 100 to 1000 | 1000 to 5000 | ≤ 250
Cc1cnn(CC(=O)N(c2cccc(F)c2)C(C(=O)NC2CCCCC2)c2ccccc2C)c1 (stereo not drawn) [Compound 309] | 100 to 1000 | 250 to 1000 | 1000 to 5000
Cc1ccccc1C(C(=O)NC1CCCCC1)N(C(=O)CNc1cncc(F)c1)c1cccc(F)c1 (stereo not drawn) [Compound 310] | 100 to 1000 | 250 to 1000 | 1000 to 5000
Cc1ccccc1C(C(=O)NC1CCCCC1)N(C(=O)Cc1ccncc1)c1cccc(F)c1 (stereo not drawn) [Compound 311] | ≤ 100 | ≤ 250 | ≤ 250
Cc1nccn1CC(=O)N(c1cccc(F)c1)C(C(=O)NC1CCCCC1)c1ccccc1F (stereo not drawn) [Compound 312] | 100 to 1000 | 1000 to 5000 | ≤ 250
CN(C)C(=O)Oc1ccc(CC(=O)N(c2cccc(F)c2)C(C(=O)NC2CCCCC2)c2ccccc2F)cc1 (stereo not drawn) [Compound 313] | ≤ 100 | ≤ 250 | ≤ 250
Cc1nccn1CC(=O)N(c1cccc(F)c1)C(C(=O)NC1CCCCC1)c1ccccc1Cl (stereo not drawn) [Compound 314] | ≤ 100 | ≤ 250 | ≤ 250
Cc1ccccc1C(C(=O)NC1CCCCC1)N(C(=O)Cn1ccnc1C)c1cccc(-c2ccnn2C)c1 (stereo not drawn) [Compound 315] | 100 to 1000 | 1000 to 5000 | ≤ 250
Cc1ccccc1C(C(=O)NC1CCCCC1)N(C(=O)CNc1ccccn1)c1cccc(F)c1 (stereo not drawn) [Compound 316] | ≤ 100 | ≤ 250 | 250 to 1000
Cc1ccccc1C(C(=O)NC1CCCCC1)N(C(=O)Cn1cccn1)c1cccc(F)c1 (stereo not drawn) [Compound 317] | 100 to 1000 | 250 to 1000 | 1000 to 5000
Cc1ccccc1C(C(=O)NC1CCCCC1)N(C(=O)CNC1Cc2cccnc2C1)c1cccc(F)c1 (stereo not drawn) [Compound 318] | 100 to 1000 | 250 to 1000 | 250 to 1000
Cc1ccccc1C(C(=O)NC1CCCCC1)N(C(=O)Cn1cc[nH]c1=O)c1cccc(F)c1 (stereo not drawn) [Compound 319] | 100 to 1000 | 1000 to 5000 | 1000 to 5000
O=C(NC1CCCCC1)C(c1ccccc1F)N(C(=O)Cc1cscn1)c1cccc(F)c1 (stereo not drawn) [Compound 320] | ≤ 100 | 250 to 1000 | 250 to 1000
O=C(NC1CCCCC1)C(c1ccccc1F)N(C(=O)Cn1cnc2ccccc21)c1cccc(F)c1 (stereo not drawn) [Compound 321] | ≤ 100 | ≤ 250 | ≤ 250
N#Cc1ccc(NCC(=O)N(c2cccc(F)c2)C(C(=O)NC2CCCCC2)c2ccccc2Cl)cc1 (stereo not drawn) [Compound 322] | ≤ 100 | ≤ 250 | ≤ 250
O=C(NC1CCCCC1)C(c1ccccc1F)N(C(=O)Cn1ccc2ncccc21)c1cccc(F)c1 (stereo not drawn) [Compound 324] | 100 to 1000 | 1000 to 5000 | 250 to 1000
Cc1ccccc1C(C(=O)NC1CC2CC2C1)N(C(=O)Cn1ccc2ncccc21)c1cccc(F)c1 (stereo not drawn) [Compound 325] | 100 to 1000 | 1000 to 5000 | 1000 to 5000
Cc1ccccc1C(C(=O)NC1CCCCC1)N(C(=O)Cn1ccnc1N)c1cccc(F)c1 (stereo not drawn) [Compound 326] | 100 to 1000 | 250 to 1000 | ≤ 250
Cc1ccccc1C(C(=O)NC1CC2CC2C1)N(C(=O)Cn1ccnc1C)c1cccc(F)c1 (stereo not drawn) [Compound 327] | 100 to 1000 | 1000 to 5000 | ≤ 250
CCC(=O)N1CCCCC1C(=O)N(c1cccc(F)c1)C(C(=O)NC1CCCCC1)c1ccccc1C (stereo not drawn) [Compound 328] | 100 to 1000 | 1000 to 5000 | 1000 to 5000
